This note sets out measurements from patent EP4722365A1, “DOUBLE-STRANDED NUCLEOTIDE COMPOUND FOR METABOLIC DISEASES AND USE THEREOF” (Visirna Therapeutics (Suzhou) Co., Ltd., priority 2023, dated 2024).

One series deals with hDGAT2. Briefly: Mouse model receiving hydrodynamic injection of DGAT2 plasmid via tail vein (Example 5, liver mRNA qPCR). Type of series: in vivo. The settings on record: 3mpk subcutaneously day 0, HDI day 14, BALB/c mice. How it is done: BALB/c mice, female, 6-7 weeks old.
pcDNA-DGAT2 plasmid, having a concentration of 2 µg/µL, diluted with physiological saline for later use.
The hydrodynamic injection scheme of DGAT2 plasmid DNA via tail vein, the administration and the sample collection method were as follows.
Treatment with compound: The day of administration to mice was defined as day 0, the day before it was day -1, the day after it was day 1, and so on. On day 0, the mice were injected subcutaneously with 5 mL/kg of the solvent or the test compound, at a dosage of 3mpk.
Hydrodynamic injection of DGAT2 plasmid DNA solution into mice via tail vein: On day 4 or 14, the plasmid DNA was prepared with normal saline before injection, and stored at 4°C until use. All mice were injected with the plasmid DNA solution in a volume of 8% of the body weight (injection volume (mL)= body weight of mice (g) x 8%) in 5 seconds via the tail vein, and the weight of plasmid injected into each mouse was 10 µg.
Endpoint of the experiment and collection of liver samples: On day 5 or 15, that is, 24 hrs after the hydrodynamic injection of DGAT2 plasmid via the tail vein, all mice were euthanized by CO2 inhalation. After euthanasia, blood samples were collected from the heart and liver samples were collected. 2 liver tissues of about 70 mg were immersed in RNAlater®, and incubated overnight at 4 °C. The supernatant was discarded and the remainder was transferred to a freezer at -80°C, for mRNA detection later.
RNA in the liver was extracted with Trizol. The method was briefly described as follows: 50-70 mg of liver tissue and 1.2 mL of Trizol were homogenized with Qiagen Tissue Lyser II at 26 Hz for 2 min and lyzed at room temperature for 5 min. 1 mL of the supernatant was taken, added to 200 uL of chloroform, vigorously shaken for 15 s, allowed to stand for 3 min, and centrifuged. The supernatant was collected, added with an equal volume of isopropanol, and stood overnight at -20°C for precipitation. The precipitate was washed twice with 70% , and dissolved in water without RNase. The concentration of the RNA sample was determined by Nanodrop ONE and diluted to 400 ng/uL with water without RNase for reverse transcription.
The experimental steps of reverse transcription could be made reference to the instruction of FastKing cDNA first strand synthesis kit (genome clean). Briefly, a gDNA removal mixture was prepared according to Table 6. The mixture (5 µL/sample) and 400 ng/µL RNA sample were added to a 96-well PCR reaction plate, incubated at 42°C for 3 min, and cooled on ice. A mixture for reverse transcription was prepared according to Table 7. The reverse transcription mixture (10 µL/sample) and the DNA removal product of the previous step were added to a 96-well PCR reaction plate, for reverse transcription. Reaction conditions: 42°C for 15 min; and 95°C for 3 min. The cDNA was stored at 4°C for further analysis. Table 6. Ingredients for gDNA-removal reaction
Reaction conditions: 95°C for 10 min; and 40 cycles of 95°C for 15 s, and 60°C for 1 min. Table 8. Ingredients for qPCR Reaction (DGAT2)
The expression of the target gene in each sample was analyzed by relative quantification using ΔΔCt method. In this method, the Ct difference (ΔCt) between the target gene (DGAT2) and the internal reference gene (Neo) was determined, and the ΔCt value of the sample treated with the compound was compared with that of the control group.
The formula is: ΔCt = average Ct value of target gene−average Ct value of reference gene. [formula] [formula]
Data analysis: The data are expressed as the average of each group of mouse samples ± standard error. Unless otherwise specified, n=4 or 5. Student's t test was used for statistical analysis. Table 10.1 Test for evaluating the in-vivo inhibitory activity of siRNA compounds on target gene DGAT2 in mice model receiving hDGAT2 HDI 5 days after administration
A general note: In qPCR the cycle at which signal appears reflects the starting amount.

The next series relates to human DGAT2. Description: Non-alcoholic steatohepatitis induced by a western diet in human DGAT2 carrying mice (Example 9, liver histology scores). Type of series: in vivo, mouse. The settings on record: for Ballooning degeneration / Fibrosis score / Grade of steatosis / Lobular inflammation / NAFLD score: B6-hDGAT2 mice, western diet. The procedure: Humanized mice with B6-hDGAT2-TG target and non-alcoholic steatohepatitis model were provided by GemPharmatech LLC. On D0, subcutaneous administration and induction and feeding with western diet were started. On D29, the second injection was performed. Effective period: 8 weeks. 4 mice in one group were sacrificed at 4-week endpoint, and 4 mice in the other group were sacrificed at 8-week endpoint.
Plasma was collected every week to detect the levels of TG, Chol, HDL-C, LDL-C, ALT, and AST, and the liver was stained with HE and NASH score were obtained at the endpoint.

Setting [1] is: 3mpk, D0 and D29, 8-week endpoint.
Setting [2] is: 3mpk, 4-week endpoint, mean ± SEM.
[3] abbreviates: 6mpk, D0 and D29, 8-week endpoint.
Setting [4] is: 6mpk, 4-week endpoint, mean ± SEM.

Regarding “dS319: sense (invAb)*acaccauaGfAfCfuauuugcuua[L96]; anti-sense Vpu*Af*a*GfcAfaauagUfcUfaUfgGfuGf* u”, in the series with hDGAT2, the “Average inhibition rate, % Day 1 after HDI (day 15 after administration)” value is on record as 91.79%. In addition, in the series on human DGAT2 (setting [1]), the Ballooning degeneration came to 2.0±0.0, the Fibrosis score turned out to be 0.9±0.1, the Grade of steatosis is reported as 1.0±0.0 and the Lobular inflammation amounted to 1.8±0.2. The same substance gave an NAFLD score in the series with human DGAT2 (setting [1]) of 4.8±0.2. In addition, in the series on human DGAT2 (setting [2]), the Ballooning degeneration turned out to be 2.0±0.0, the Fibrosis score is reported as 0.5±0.1, the Grade of steatosis was found to be 0.7±0.1 and the Lobular inflammation is 2.2±0.1. The NAFLD score in the series with human DGAT2 (setting [2]) amounted to 4.9±0.2. Also, in the series with human DGAT2 (setting [3]), the Ballooning degeneration turned out to be 1.3±0.1, the Fibrosis score came out at 0.8±0.2, the Grade of steatosis is recorded as 1.1±0.1 and the Lobular inflammation worked out at 2.0±0.1. Also, in the series on human DGAT2 (setting [3]), the NAFLD score amounted to 4.3±0.0. In the series on human DGAT2 (setting [4]), this substance registered a Ballooning degeneration of 1.3±0.1, a Fibrosis score of 0.4±0.1, a Grade of steatosis of 0.5±0.2 and a Lobular inflammation of 1.6±0.2. Besides, in the series with human DGAT2 (setting [4]), the NAFLD score is recorded as 3.4±0.2. Further, in the series on human DGAT2 (FIG. 1 legend, hDGAT2 combined with western diet, over 4 weeks), the “improvement on non-alcoholic steatohepatitis (NASH) by NAFLD activity score” value is “improvement”. The “improvement on fibrosis in non-alcoholic steatohepatitis” value in the series on human DGAT2 (FIG. 2 legend, hDGAT2 combined with western diet, over 4 weeks) is listed as “improvement”.
